# Reference: PubChem BioAssay AID318 (DTP/NCI, 2004)
# Several values for one entry are separate records, joined by “and”; a condition that tells them apart may be missing. Identical values can stand only once. Toxic doses and inconclusive results are not listed. Starred links: 1 amine or outer side, 2 acyl side, 3 side chain; linkers in the order of their positions; H or OH if unused. Positions of bridges follow the written chain, without caps; N, C: chain ends. Non-standard residues stand in square brackets, D forms with d. Residues, ends and D or L forms follow the SMILES beside them. Chains are numbered I, II in the order given. Actinocin(9to1) = Cc1c2oc3c(C)ccc(C(=O)[*:1])c3nc-2c(C(=O)[*:2])c(N)c1=O; aThr = C[C@H](O)[C@H](N)C(=O)O; NMeV = CN[C@H](C(=O)O)C(C)C; Sar = CNCC(=O)O
# Tested on: BDF1 mice, P815 leukemia ip, survival T/C
# Assay: NCI In Vivo Anticancer Drug Screen. Data for tumor model P815 Mast Cell Leukemia (Ascitic) (intraperitoneal) in B6D2F1 (BDF1) mice
# Details: higher = longer survival
# Procedure: The antitumor activity of compounds was measured in mice bearing transplantable tumors. Survival or tumor size were measured and the results are expressed as the measurement made in the treated group (T) divided by the measurement made in the vehicle treated control group (C). The tumor model used in this assay is P815 Mast Cell Leukemia (Ascitic) (intraperitoneal) in B6D2F1 (BDF1) mice
# [1] = endpoint: survival time, mean or median, dose: 1.0 mg/kg/injection, schedule: Q01DX010 (ip), vehicle: saline
# [2] = endpoint: survival time, mean or median, dose: 2.0 mg/kg/injection, schedule: Q01DX010 (ip), vehicle: saline
# [3] = endpoint: survival time, mean or median, dose: 4.0 mg/kg/injection, schedule: Q01DX010 (ip), vehicle: saline
# [4] = endpoint: survival time, mean or median, dose: 40.0 mg/kg/injection, schedule: Q01DX010 (ip), vehicle: saline
# [5] = endpoint: survival time, mean or median, dose: 3.13 mg/kg/injection, schedule: Q01DX010 (ip), vehicle: saline
# [6] = endpoint: survival time, mean or median, dose: 6.25 mg/kg/injection, schedule: Q01DX010 (ip), vehicle: saline
# [7] = endpoint: survival time, mean or median, dose: 12.5 mg/kg/injection, schedule: Q01DX010 (ip), vehicle: saline
# [8] = endpoint: survival time, mean or median, dose: 25.0 mg/kg/injection, schedule: Q01DX010 (ip), vehicle: saline
# [9] = endpoint: survival time, mean or median, dose: 0.5 mg/kg/injection, schedule: Q01DX010 (ip), vehicle: saline
# [10] = endpoint: survival time, mean or median, dose: 10.0 mg/kg/injection, schedule: Q01DX010 (ip), vehicle: saline
# [11] = endpoint: survival time, mean or median, dose: 20.0 mg/kg/injection, schedule: Q01DX010 (ip), vehicle: saline
structure (smiles),measurement,setting,value
C[N+](C)(C)c1ncnc2nc[nH]c12,T/C,"endpoint: survival time, mean or median, dose: 15.0 mg/kg/injection, schedule: Q01DX010 (ip), vehicle: saline",100 % of control
same,T/C,"endpoint: survival time, mean or median, dose: 30.0 mg/kg/injection, schedule: Q01DX010 (ip), vehicle: saline",94 % of control
same,T/C,"endpoint: survival time, mean or median, dose: 60.0 mg/kg/injection, schedule: Q01DX010 (ip), vehicle: saline",88 % of control
O=C(Nc1ccc(C2=NCCN2)cc1)c1ccc(NC(=O)c2ccc(C3=NCCN3)cc2)cc1,T/C,"endpoint: survival time, mean or median, dose: 18.0 mg/kg/injection, schedule: Q01DX010 (ip), vehicle: saline",112 % of control
same,T/C,"endpoint: survival time, mean or median, dose: 27.0 mg/kg/injection, schedule: Q01DX010 (ip), vehicle: saline",116 % of control
CC[n+]1c(-c2ccccc2)c2cc(N)ccc2c2ccc(N)cc21,T/C,"endpoint: survival time, mean or median, dose: 0.12 mg/kg/injection, schedule: Q01DX015 (ip), vehicle: saline",105 % of control
same,T/C,"endpoint: survival time, mean or median, dose: 0.25 mg/kg/injection, schedule: Q01DX015 (ip), vehicle: saline",109 % of control
same,T/C,"endpoint: survival time, mean or median, dose: 0.5 mg/kg/injection, schedule: Q01DX015 (ip), vehicle: saline",120 % of control
same,T/C,"endpoint: survival time, mean or median, dose: 1.0 mg/kg/injection, schedule: Q01DX015 (ip), vehicle: saline",117 % of control
same,T/C,"endpoint: survival time, mean or median, dose: 2.0 mg/kg/injection, schedule: Q01DX015 (ip), vehicle: saline",208 % of control
same,T/C,"endpoint: survival time, mean or median, dose: 5.0 mg/kg/injection, schedule: Q01DX015 (ip), vehicle: saline",163 % of control
same,T/C,"endpoint: survival time, mean or median, dose: 10.0 mg/kg/injection, schedule: Q01DX015 (ip), vehicle: saline",87 % of control
CS(=O)(=O)OCCN(CCOS(C)(=O)=O)c1ccc(N=O)cc1,T/C,[1],161 % of control
same,T/C,[2],115 % of control
same,T/C,[3],100 % of control
S=P(N1CCOCC1)(N1CC1)N1CC1,T/C,"endpoint: survival time, mean or median, dose: 2.5 mg/kg/injection, schedule: Q01DX010 (ip), vehicle: saline",97 % of control and 100 % of control
same,T/C,[4],100 % of control
CC/C(=C(/CC)c1ccc(O)cc1)c1ccc(O)cc1,T/C,"endpoint: survival time, mean or median, dose: 12.5 mg/kg/injection, schedule: Q01DX010 (sc), vehicle: steriod suspending solution",100 % of control and 104 % of control
same,T/C,"endpoint: survival time, mean or median, dose: 25.0 mg/kg/injection, schedule: Q01DX010 (sc), vehicle: steriod suspending solution",100 % of control and 109 % of control
same,T/C,"endpoint: survival time, mean or median, dose: 50.0 mg/kg/injection, schedule: Q01DX010 (sc), vehicle: steriod suspending solution",100 % of control and 104 % of control
same,T/C,"endpoint: survival time, mean or median, dose: 100.0 mg/kg/injection, schedule: Q01DX010 (sc), vehicle: steriod suspending solution",100 % of control and 109 % of control
CCCNc1ncnc2[nH]ncc12,T/C,[5],95 % of control and 104 % of control
same,T/C,[6],100 % of control and 116 % of control
same,T/C,[7],95 % of control and 100 % of control
same,T/C,[8],95 % of control
CS(=O)(=O)OCCCl,T/C,"endpoint: survival time, mean or median, dose: 18.8 mg/kg/injection, schedule: Q01DX010 (ip), vehicle: saline",100 % of control and 105 % of control
same,T/C,"endpoint: survival time, mean or median, dose: 37.5 mg/kg/injection, schedule: Q01DX010 (ip), vehicle: saline",100 % of control
same,T/C,"endpoint: survival time, mean or median, dose: 75.0 mg/kg/injection, schedule: Q01DX010 (ip), vehicle: saline",100 % of control and 111 % of control
NC(=O)N(CCCl)N=O,T/C,[9],175 % of control
same,T/C,[1],210 % of control
same,T/C,[2],100 % of control
same,T/C,[3],105 % of control
C1CN1c1nc(N2CC2)nc(N2CC2)n1,T/C,"endpoint: survival time, mean or median, dose: 0.13 mg/kg/injection, schedule: Q01DX010 (ip), vehicle: saline",111 % of control
same,T/C,"endpoint: survival time, mean or median, dose: 0.25 mg/kg/injection, schedule: Q01DX010 (ip), vehicle: saline",111 % of control
same,T/C,"endpoint: survival time, mean or median, dose: 125.0 micrograms/kg/injection, schedule: Q01DX010 (ip), vehicle: saline",100 % of control
same,T/C,"endpoint: survival time, mean or median, dose: 250.0 micrograms/kg/injection, schedule: Q01DX010 (ip), vehicle: saline",105 % of control
same,T/C,"endpoint: survival time, mean or median, dose: 1000.0 micrograms/kg/injection, schedule: Q01DX010 (ip), vehicle: saline",94 % of control
NOCc1ccsn1,T/C,"endpoint: median survival time, dose: 15.0 mg/kg/injection, schedule: Q01DX010 (ip), vehicle: saline sonified",100 % of control
same,T/C,"endpoint: median survival time, dose: 30.0 mg/kg/injection, schedule: Q01DX010 (ip), vehicle: saline sonified",100 % of control
same,T/C,"endpoint: median survival time, dose: 60.0 mg/kg/injection, schedule: Q01DX010 (ip), vehicle: saline sonified",93 % of control
O=c1[nH]cc(F)c(=O)[nH]1,T/C,"endpoint: median survival time, dose: 80.0 mg/kg/injection, schedule: Q04DX003 (ip), vehicle: saline",118 % of control
same,T/C,"endpoint: survival time, mean or median, dose: 5.0 mg/kg/injection, schedule: Q01DX010 (ip), vehicle: saline",150 % of control
same,T/C,"endpoint: survival time, mean or median, dose: 5.0 mg/kg/injection, schedule: Q01DX015 (ip), vehicle: carboxymethylcellulose (CMC)",162 % of control
same,T/C,[10],194 % of control and 150 % of control
same,T/C,"endpoint: survival time, mean or median, dose: 10.0 mg/kg/injection, schedule: Q01DX015 (ip), vehicle: carboxymethylcellulose (CMC)",174 % of control
same,T/C,"endpoint: survival time, mean or median, dose: 15.0 mg/kg/injection, schedule: Q01DX015 (ip), vehicle: carboxymethylcellulose (CMC)",199 % of control and 174 % of control
same,T/C,[11],195 % of control and 216 % of control
same,T/C,"endpoint: survival time, mean or median, dose: 20.0 mg/kg/injection, schedule: Q01DX015 (ip), vehicle: carboxymethylcellulose (CMC)",189 % of control
same,T/C,[4],95 % of control and 111 % of control
CCOC(=O)c1[nH]c2ccccc2c1CN(CCCl)CCCl,T/C,[10],105 % of control
same,T/C,[11],115 % of control
same,T/C,[4],115 % of control
COc1ccc2c(c1OC)C(=O)O[C@@H]2[C@H]1c2c(cc3c(c2OC)OCO3)CCN1C,T/C,"endpoint: survival time, mean or median, dose: 62.5 mg/kg/injection, schedule: Q01DX015 (ip), vehicle: carboxymethylcellulose (CMC)",101 % of control
same,T/C,"endpoint: survival time, mean or median, dose: 125.0 mg/kg/injection, schedule: Q01DX015 (ip), vehicle: carboxymethylcellulose (CMC)",95 % of control
same,T/C,"endpoint: survival time, mean or median, dose: 250.0 mg/kg/injection, schedule: Q01DX015 (ip), vehicle: carboxymethylcellulose (CMC)",96 % of control
same,T/C,"endpoint: survival time, mean or median, dose: 500.0 mg/kg/injection, schedule: Q01DX015 (ip), vehicle: carboxymethylcellulose (CMC)",93 % of control
CC1CCOS(=O)O1 (centres undefined),T/C,[10],100 % of control
same,T/C,[11],100 % of control
same,T/C,[4],100 % of control
same,T/C,"endpoint: survival time, mean or median, dose: 80.0 mg/kg/injection, schedule: Q01DX010 (ip), vehicle: saline",88 % of control
Nc1nc(F)nc2c1ncn2C1OC(CO)C(O)C1O (centres undefined),T/C,[9],100 % of control
same,T/C,"endpoint: survival time, mean or median, dose: 0.75 mg/kg/injection, schedule: Q01DX015 (ip), vehicle: saline",99 % of control
same,T/C,[1],100 % of control and 112 % of control
same,T/C,"endpoint: survival time, mean or median, dose: 1.5 mg/kg/injection, schedule: Q01DX015 (ip), vehicle: saline",98 % of control
same,T/C,[2],100 % of control and 112 % of control
same,T/C,[3],100 % of control and 112 % of control
same,T/C,"endpoint: survival time, mean or median, dose: 8.0 mg/kg/injection, schedule: Q01DX010 (ip), vehicle: saline",88 % of control
"Cc1c2oc3c(C)ccc(C(=O)N[C@@H]4C(=O)N[C@H](C(C)C)C(=O)N5CCC[C@H]5C(=O)N(C)CC(=O)N(C)[C@@H](C(C)C)C(=O)O[C@H]4C)c3nc-2c(C(=O)N[C@@H]2C(=O)N[C@H](C(C)C)C(=O)N3CCC[C@H]3C(=O)N(C)CC(=O)N(C)[C@@H](C(C)C)C(=O)O[C@H]2C)c(N)c1=O (I: [aThr][dV]P[Sar][NMeV] / II: [aThr][dV]P[Sar][NMeV]; ester I:1-I:C, II:1-II:C; linker I:N-II:N via Actinocin(9to1))",T/C,"endpoint: median survival time, dose: 180.0 micrograms/kg/injection, schedule: Q04DX003 (ip), vehicle: saline + alcohol",122 % of control
same,T/C,"endpoint: median survival time, dose: 300.0 micrograms/kg/injection, schedule: Q04DX003 (ip), vehicle: saline + alcohol",105 % of control
same,T/C,"endpoint: median survival time, dose: 500.0 micrograms/kg/injection, schedule: Q04DX003 (ip), vehicle: saline + alcohol",90 % of control
C[C@H]1C(=O)O[C@@H]2CCN3CC=C(COC(=O)[C@](C)(O)[C@@]1(C)O)[C@H]23,T/C,[5],94 % of control and 100 % of control
same,T/C,[6],100 % of control and 105 % of control
same,T/C,[7],88 % of control and 94 % of control
same,T/C,[8],100 % of control
CC(C)CNS(=O)(=O)c1ncnc2nc[nH]c12,T/C,"endpoint: survival time, mean or median, dose: 37.5 mg/kg/injection, schedule: Q01DX015 (ip), vehicle: carboxymethylcellulose (CMC)",97 % of control
O=CCC(O)C(O)C(O)CO (centres undefined),T/C,"endpoint: survival time, mean or median, dose: 62.5 mg/kg/injection, schedule: Q01DX010 (ip), vehicle: saline",94 % of control and 97 % of control
same,T/C,"endpoint: survival time, mean or median, dose: 125.0 mg/kg/injection, schedule: Q01DX010 (ip), vehicle: saline",97 % of control and 105 % of control
same,T/C,"endpoint: survival time, mean or median, dose: 250.0 mg/kg/injection, schedule: Q01DX010 (ip), vehicle: saline",105 % of control and 107 % of control
same,T/C,"endpoint: survival time, mean or median, dose: 500.0 mg/kg/injection, schedule: Q01DX010 (ip), vehicle: saline",102 % of control
